Experiments:
[1] = target: T1, 5-hydroxytryptamine receptor 2C (Rattus norvegicus, UniProt P08909)
T1 sequence (P08909 whole entry): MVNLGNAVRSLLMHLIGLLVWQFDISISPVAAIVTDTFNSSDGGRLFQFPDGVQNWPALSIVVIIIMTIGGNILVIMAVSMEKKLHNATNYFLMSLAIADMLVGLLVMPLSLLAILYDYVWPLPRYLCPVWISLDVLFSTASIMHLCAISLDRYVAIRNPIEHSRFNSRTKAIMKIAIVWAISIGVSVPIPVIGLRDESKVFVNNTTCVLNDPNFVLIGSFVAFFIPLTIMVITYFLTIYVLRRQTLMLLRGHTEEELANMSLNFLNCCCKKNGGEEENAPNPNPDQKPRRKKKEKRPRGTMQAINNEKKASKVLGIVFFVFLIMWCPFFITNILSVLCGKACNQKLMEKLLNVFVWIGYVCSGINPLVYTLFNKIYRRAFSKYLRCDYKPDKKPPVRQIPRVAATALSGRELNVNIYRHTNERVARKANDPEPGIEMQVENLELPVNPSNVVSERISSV
Description: Inhibition of [3H]mesulergine binding to 5-hydroxytryptamine 2C receptor in rat brain membranes

[2] = target: T2, Adrenergic receptor alpha-1 (Rattus norvegicus, UniProt P15823+P23944+P43140); assay: Inhibition of [3H]prazosin binding to Alpha-1 adrenergic receptor in rat brain membranes
T2 sequence (P15823 whole entry): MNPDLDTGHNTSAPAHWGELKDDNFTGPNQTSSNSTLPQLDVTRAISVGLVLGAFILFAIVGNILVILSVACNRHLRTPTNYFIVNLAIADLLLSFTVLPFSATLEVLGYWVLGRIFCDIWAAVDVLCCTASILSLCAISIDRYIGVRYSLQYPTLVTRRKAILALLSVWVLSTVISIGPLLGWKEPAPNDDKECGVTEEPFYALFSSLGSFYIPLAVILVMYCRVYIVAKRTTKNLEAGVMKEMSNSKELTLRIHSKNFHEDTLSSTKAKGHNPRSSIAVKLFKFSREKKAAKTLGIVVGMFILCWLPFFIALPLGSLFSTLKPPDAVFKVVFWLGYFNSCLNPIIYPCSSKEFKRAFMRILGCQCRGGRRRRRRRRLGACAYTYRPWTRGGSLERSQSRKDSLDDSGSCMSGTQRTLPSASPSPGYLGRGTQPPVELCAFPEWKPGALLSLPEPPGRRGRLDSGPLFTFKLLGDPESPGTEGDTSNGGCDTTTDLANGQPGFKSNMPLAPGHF
T2 sequence (P23944 whole entry): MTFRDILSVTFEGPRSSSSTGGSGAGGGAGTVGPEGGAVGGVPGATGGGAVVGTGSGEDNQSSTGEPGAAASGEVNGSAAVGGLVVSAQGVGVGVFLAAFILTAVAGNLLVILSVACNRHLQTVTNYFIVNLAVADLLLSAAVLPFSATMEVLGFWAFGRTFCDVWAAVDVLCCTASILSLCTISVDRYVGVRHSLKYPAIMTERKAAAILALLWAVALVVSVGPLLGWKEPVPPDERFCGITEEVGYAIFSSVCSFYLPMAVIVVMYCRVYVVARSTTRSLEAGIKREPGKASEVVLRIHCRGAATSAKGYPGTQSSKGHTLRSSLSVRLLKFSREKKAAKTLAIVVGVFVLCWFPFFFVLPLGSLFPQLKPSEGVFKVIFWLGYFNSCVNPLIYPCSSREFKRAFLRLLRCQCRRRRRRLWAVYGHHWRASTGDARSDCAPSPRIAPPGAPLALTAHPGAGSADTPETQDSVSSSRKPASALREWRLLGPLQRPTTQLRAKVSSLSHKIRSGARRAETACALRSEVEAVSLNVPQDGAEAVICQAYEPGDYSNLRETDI
T2 sequence (P43140 whole entry): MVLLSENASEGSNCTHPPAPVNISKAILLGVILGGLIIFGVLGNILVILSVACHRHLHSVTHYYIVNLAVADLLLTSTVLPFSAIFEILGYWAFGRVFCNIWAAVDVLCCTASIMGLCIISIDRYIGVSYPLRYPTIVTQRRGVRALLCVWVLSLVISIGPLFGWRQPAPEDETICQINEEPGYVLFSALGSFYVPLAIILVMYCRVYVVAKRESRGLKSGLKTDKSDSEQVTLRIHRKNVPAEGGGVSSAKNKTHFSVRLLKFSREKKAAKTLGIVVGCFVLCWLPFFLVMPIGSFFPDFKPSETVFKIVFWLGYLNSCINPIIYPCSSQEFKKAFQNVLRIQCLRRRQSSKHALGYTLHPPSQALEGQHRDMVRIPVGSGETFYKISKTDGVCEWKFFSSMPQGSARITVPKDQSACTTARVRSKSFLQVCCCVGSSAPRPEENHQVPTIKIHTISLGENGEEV

[3] = target: 5-hydroxytryptamine receptor 2A (Rattus norvegicus, UniProt P14842); assay: Inhibition of [3H]ketanserin binding to 5-hydroxytryptamine 2A receptor from rat brain
[4] = target: T3, Muscarinic acetylcholine receptor M1 (Homo sapiens, UniProt P11229); assay: Inhibitory binding of [3H]pirenzepine to human Muscarinic acetylcholine receptor M1 in membranes from CHO-K1 cells; assay type: cell-based
T3 sequence (P11229 whole entry): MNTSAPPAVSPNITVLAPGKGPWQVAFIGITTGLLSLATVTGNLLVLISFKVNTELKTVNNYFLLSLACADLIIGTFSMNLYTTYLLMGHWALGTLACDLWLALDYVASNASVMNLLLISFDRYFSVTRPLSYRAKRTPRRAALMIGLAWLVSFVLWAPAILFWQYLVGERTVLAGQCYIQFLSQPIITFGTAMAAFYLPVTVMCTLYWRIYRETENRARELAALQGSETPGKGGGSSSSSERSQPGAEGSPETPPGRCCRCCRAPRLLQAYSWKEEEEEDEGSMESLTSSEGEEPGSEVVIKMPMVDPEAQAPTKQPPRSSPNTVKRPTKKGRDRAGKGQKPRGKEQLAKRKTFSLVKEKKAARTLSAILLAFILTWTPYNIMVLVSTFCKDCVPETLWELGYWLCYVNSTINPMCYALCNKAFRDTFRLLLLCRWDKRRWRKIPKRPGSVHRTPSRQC

[5] = target: D(1A) dopamine receptor (Rattus norvegicus, UniProt P18901)
Description: Inhibitory binding of [3H]SCH-23390 to Dopamine receptor D1 in membranes from rat corpus striatum

[6] = target: Histamine H1 receptor (Rattus norvegicus, UniProt P31390); assay: Inhibitory binding of [3H]mepyramine to histamine H1 receptors in rat brain membranes; assay type: cell membranes
[7] = test system: Rattus norvegicus; assay: Catalytic action on male Wistar rats after subcutaneous administration of 10 µmol/kg dose of compound
[8] = test system: Rattus norvegicus; assay: Locomotor activity in male Wistar rats after a dose of 10 uM/kg, 30 min before 1 mg/kg of apomorphine administration; assay type: functional
[9] = test system: Rattus norvegicus; assay: Locomotor activity in male Wistar rats after a dose of 3 uM/kg, 30 min before 1 mg/kg of apomorphine administration; assay type: functional
[10] = test system: Rattus norvegicus; assay: Locomotor activity in male Wistar rats after a dose of 100 uM/kg, 30 min before 1 mg/kg of apomorphine administration; assay type: functional
[11] = test system: Rattus norvegicus; assay: Catalytic action on male Wistar rats after subcutaneous administration of 100 µmol/kg dose of compound
[12] = test system: Rattus norvegicus; assay: Locomotor activity in male Wistar rats after a dose of 30 uM/kg, 30 min before 1 mg/kg of apomorphine administration; assay type: functional
[13] = test system: Rattus norvegicus; assay: Catalytic action on male Wistar rats after subcutaneous administration of 0.3 µmol/kg dose of compound
[14] = test system: Rattus norvegicus; assay: Catalytic action on male Wistar rats after subcutaneous administration of 0.003 µmol/kg dose of compound
[15] = test system: Rattus norvegicus; assay: Locomotor activity in male Wistar rats after a dose of 0.03 uM/kg, 30 min before 1 mg/kg of apomorphine administration; assay type: functional
[16] = test system: Rattus norvegicus; assay: Catalytic action on male Wistar rats after subcutaneous administration of 0.03 µmol/kg dose of compound
[17] = test system: Rattus norvegicus; assay: Locomotor activity in male Wistar rats after a dose of 0.003 uM/kg, 30 min before 1 mg/kg of apomorphine administration; assay type: functional
[18] = test system: Rattus norvegicus; assay: Locomotor activity in male Wistar rats after a dose of 0.3 uM/kg, 30 min before 1 mg/kg of apomorphine administration; assay type: functional
[19] = test system: Rattus norvegicus; assay: Locomotor activity in male Wistar rats after a dose of 1.0 uM/kg, 30 min before 1 mg/kg of apomorphine administration; assay type: functional
[20] = test system: Rattus norvegicus; assay: Catalytic action on male Wistar rats after subcutaneous administration of 30 µmol/kg dose of compound
[21] = test system: Rattus norvegicus; assay: Locomotor activity in male Wistar rats after a dose of 3.0 uM/kg, 30 min before 1 mg/kg of apomorphine administration; assay type: functional
[22] = test system: Rattus norvegicus; assay: Catalytic action on male Wistar rats after subcutaneous administration of 3.0 µmol/kg dose of compound
[23] = test system: Rattus norvegicus; assay: Catalytic action on male Wistar rats after subcutaneous administration of 1.0 µmol/kg dose of compound

Sequence of D(1A) dopamine receptor (P18901 whole entry): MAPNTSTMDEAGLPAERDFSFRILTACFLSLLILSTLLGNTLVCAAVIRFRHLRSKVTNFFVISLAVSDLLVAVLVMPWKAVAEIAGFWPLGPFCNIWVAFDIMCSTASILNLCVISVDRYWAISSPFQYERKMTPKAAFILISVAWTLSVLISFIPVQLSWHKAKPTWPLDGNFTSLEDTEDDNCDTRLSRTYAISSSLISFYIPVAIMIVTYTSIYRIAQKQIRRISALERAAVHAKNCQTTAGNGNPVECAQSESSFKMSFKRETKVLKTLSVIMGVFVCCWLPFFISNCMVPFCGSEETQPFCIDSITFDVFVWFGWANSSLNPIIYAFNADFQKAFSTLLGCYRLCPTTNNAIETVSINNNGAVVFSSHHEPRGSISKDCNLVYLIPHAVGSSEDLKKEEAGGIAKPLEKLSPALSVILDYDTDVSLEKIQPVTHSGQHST
Sequence of 5-hydroxytryptamine receptor 2A (P14842 whole entry): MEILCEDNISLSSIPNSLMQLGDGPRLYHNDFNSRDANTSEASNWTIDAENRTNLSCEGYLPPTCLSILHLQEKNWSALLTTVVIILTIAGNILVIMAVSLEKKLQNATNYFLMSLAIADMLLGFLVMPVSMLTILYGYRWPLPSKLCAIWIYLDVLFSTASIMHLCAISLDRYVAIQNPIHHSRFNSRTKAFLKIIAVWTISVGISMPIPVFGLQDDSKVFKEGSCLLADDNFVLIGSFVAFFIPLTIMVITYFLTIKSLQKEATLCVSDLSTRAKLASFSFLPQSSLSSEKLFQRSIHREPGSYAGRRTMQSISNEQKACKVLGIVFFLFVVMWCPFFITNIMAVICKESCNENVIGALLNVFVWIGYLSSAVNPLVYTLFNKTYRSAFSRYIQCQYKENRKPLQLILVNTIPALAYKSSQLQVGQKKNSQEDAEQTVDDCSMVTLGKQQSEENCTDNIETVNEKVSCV
Sequence of Histamine H1 receptor (P31390 whole entry): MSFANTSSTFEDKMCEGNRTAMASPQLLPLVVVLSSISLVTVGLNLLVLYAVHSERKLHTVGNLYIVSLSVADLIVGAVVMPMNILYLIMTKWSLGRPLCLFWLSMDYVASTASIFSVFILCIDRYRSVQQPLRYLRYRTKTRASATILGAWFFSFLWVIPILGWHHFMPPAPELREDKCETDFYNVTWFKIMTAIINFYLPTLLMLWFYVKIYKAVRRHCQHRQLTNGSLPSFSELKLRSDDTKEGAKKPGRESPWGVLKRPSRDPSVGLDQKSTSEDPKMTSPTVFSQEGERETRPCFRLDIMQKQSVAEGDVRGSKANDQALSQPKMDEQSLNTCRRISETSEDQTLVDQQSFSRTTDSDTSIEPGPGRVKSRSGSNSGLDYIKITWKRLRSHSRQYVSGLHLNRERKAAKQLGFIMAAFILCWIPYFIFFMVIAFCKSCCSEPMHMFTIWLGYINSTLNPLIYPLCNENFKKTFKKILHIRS

Row | SMILES | IC50 [1] | IC50 [2] | IC50 [3] | IC50 [4] | IC50 [5] | Catalyptic action [7] | Locomotor activity [8] | further results
1 | CN1CCN(C2=Nc3ccccc3Nc3ccc(O)cc32)CC1 | 81 nM | 260 nM | 35 nM | 37 nM | 550 nM |  |  | 
2 | CN1CCN(C2=Nc3cc(OS(=O)(=O)C(F)(F)F)ccc3Nc3ccccc32)CC1 | 620 nM | > 1000 nM | 550 nM | 35 nM | 930 nM |  |  | IC50 [6]: 720 nM
3 | CN1CCN(C2=Nc3cc(O)ccc3Nc3ccccc32)CC1 | 440 nM | 1200 nM |  | 27 nM | 9800 nM |  |  | 
4 | CN1CCN(C2=Nc3ccccc3Nc3ccc(OS(=O)(=O)C(F)(F)F)cc32)CC1 | 34 nM | 12 nM | 8 nM | 1200 nM | 64 nM | 0 | 102 | Locomotor activity [9]: 87; Locomotor activity [10]: 8; Catalyptic action [11]: 0; Locomotor activity [12]: 22; IC50 [6]: 47 nM
5 | COc1ccc2c(c1)C(N1CCN(C)CC1)=Nc1ccccc1N2 | 21 nM | 120 nM | 12 nM | 39 nM | 550 nM |  |  | 
6 | COc1ccc2c(c1)N=C(N1CCN(C)CC1)c1ccccc1N2 | 86 nM | 240 nM |  | 19 nM | 7400 nM |  |  | 
7 | CN1CCN(C2=Nc3cc(Cl)ccc3Nc3ccccc32)CC1 [CLOZAPINE] |  |  |  |  |  | 0 | 98 | Locomotor activity [10]: 7; Catalyptic action [11]: 0
8 | O=C(CCCN1CCC(O)(c2ccc(Cl)cc2)CC1)c1ccc(F)cc1 [HALOPERIDOL] |  |  |  |  |  |  |  | Catalyptic action [13]: 100; Catalyptic action [14]: 0; Locomotor activity [15]: 9; Catalyptic action [16]: 75; Locomotor activity [17]: 88; Locomotor activity [18]: 1
9 | CN1CCN(C2=Nc3ccccc3Nc3ccc(Cl)cc32)CC1 [ISOCLOZAPINE] |  | 64 nM |  | 6 nM | 11 nM | 25 | 3 | Catalyptic action [13]: 0; Locomotor activity [19]: 82; Catalyptic action [20]: 75; Locomotor activity [12]: 3; Locomotor activity [21]: 65; Locomotor activity [18]: 114; Catalyptic action [22]: 0; Catalyptic action [23]: 0

From ChEMBL document CHEMBL1130263 (J Med Chem, 1997)
